Experimental data reported in publication PMC11539218 (Antimicrobial Agents and Chemotherapy, 2024).

Key:
Type in all cases: cell-based, Leishmania (L.) infantum
[1] = system: L. (L.) infantum promastigotes; conditions: compound 1 169.2 µM, sodium azide 10 mM; 2 and 4 h; H2DCFDA; vs untreated
Protocol: Promastigotes (2 × 10^6/well) were treated with compound 1 (169.2 µM) for 2 and 4 h, at 24°C. Later, H2DCFDA (5 µM) was added and the parasites were incubated for 15 min. Fluorescence was monitored in a spectrofluorometer with excitation and emission wavelengths of 485 and 535 nm, respectively ([19]). Sodium azide (10 mM) was employed as positive control and untreated parasites as negative control.

[2] = system: L. (L.) infantum promastigotes; assay: Intracellular Ca2+ (Fluo-4 AM); conditions: 169.2 µM, from 20 min up to 4 h, vs untreated
Protocol: Promastigotes (2 × 10^6/well) were pretreated with Fluo-4 AM (5 µM) in PBS, for 1 h at 24°C. Then, parasites were treated with compound 1 (169.2 µM). Fluorescence was measured every 20 min up to 4 h in a spectrofluorometer, with excitation and emission wavelengths of 485 nm and 535 nm, respectively ([21]). Triton X-100 0.5% (vol/vol) was employed as positive control and untreated parasites as negative control.

[3] = system: L. (L.) infantum promastigotes; assay: Cell cycle (propidium iodide, flow cytometry); conditions: 24 h; compound 1 169.2 µM, miltefosine 25 µM
Protocol: Promastigotes (2 × 10^6/well) in exponential phase, were treated with compound 1 (169.2 µM) in M199 medium supplemented with 10% FBS and 0.25% hemin, pH 7.2, for 24 h at 24°C. In sequence, 70% (vol/vol) ice-cold ethanol was used for cell permeabilization overnight at −20°C. Then, the parasites were incubated with propidium iodide (10 µg/mL) and RNase A (20 µg/mL) for 30 min. […] Miltefosine (25 µM) was employed as positive control and untreated parasites as negative control ([25]).

C=CCc1cc(OC)c(OCc2ccc(OC)cc2)c(Oc2ccc(CN3CCOCC3)cc2OC)c1 [compound 1, 4-(4-(5-allyl-3-methoxy-2-((4-methoxybenzyl)oxy)phenoxy)-3-methoxybenzyl)morpholine]
ROS levels [1]: significant reduction
intracellular Ca2+ level [2]: fast and increased Ca^2+ level
Proportion of parasites in different phases of the cell cycle (% ± SD): G0/G1 [3]: 46.6 ± 0.7 %
Proportion of parasites in different phases of the cell cycle (% ± SD): M/G2 [3]: 17.9 ± 0.5%
Proportion of parasites in different phases of the cell cycle (% ± SD): S [3]: 11.1 ± 1.3%
Proportion of parasites in different phases of the cell cycle (% ± SD): Sub G0 [3]: 7.5 ± 0.7 %
